These molecules were tested against h5-HT2A receptor (Homo sapiens, UniProt P28223) (assay: [3H]ketanserin competitive radioligand binding assay). Settings: h5-HT2A Ki relative to parent compound AMDA (Ki = 20 nM).
h5-HT2A receptor, sequence (P28223 whole entry): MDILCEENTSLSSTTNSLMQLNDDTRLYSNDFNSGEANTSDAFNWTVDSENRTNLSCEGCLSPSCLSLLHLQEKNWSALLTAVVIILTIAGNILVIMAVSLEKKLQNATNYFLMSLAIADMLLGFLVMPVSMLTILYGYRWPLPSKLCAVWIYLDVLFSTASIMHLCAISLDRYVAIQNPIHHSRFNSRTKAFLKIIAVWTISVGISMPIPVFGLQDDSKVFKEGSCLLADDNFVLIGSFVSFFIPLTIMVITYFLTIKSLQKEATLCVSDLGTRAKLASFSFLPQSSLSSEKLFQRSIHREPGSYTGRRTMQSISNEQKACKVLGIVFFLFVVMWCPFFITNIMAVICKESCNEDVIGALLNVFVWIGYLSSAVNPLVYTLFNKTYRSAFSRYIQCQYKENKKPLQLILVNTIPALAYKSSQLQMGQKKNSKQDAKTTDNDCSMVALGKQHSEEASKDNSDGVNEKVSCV

SMILES	fold decrease in affinity compared to AMDA
COc1ccc2c(c1)C(CN)c1ccccc1C2 (stereo not drawn) [Compound 3, 2-methoxy-9-aminomethyl-9,10-dihydroanthracene]	> 50 fold
COc1cccc2c1C(CN)c1ccccc1C2 (stereo not drawn) [Compound 2, 1-methoxy AMDA]	> 50 fold
COc1cccc2c1Cc1ccccc1C2CN (stereo not drawn) [Compound 5, 4-methoxy-AMDA]	6 fold

From publication PMC3082371 (Bioorganic & medicinal chemistry letters, 2008)
